Laboratory results reported in ChEMBL document CHEMBL4000248, “Synthesis and biological evaluation of cyclic imides incorporating benzenesulfonamide moieties as carbonic anhydrase I, II, IV and IX inhibitors” (Bioorg Med Chem, 2017).

Biological target: Carbonic anhydrase 9 (Homo sapiens, UniProt Q16790)
Assay: Inhibition of recombinant human carbonic anhydrase 9 incubated for 10 mins prior to testing by stopped flow CO2 hydrase assay

| SMILES | Ki [µM] |
| --- | --- |
| NS(=O)(=O)c1ccc(CCN2C(=O)c3c(Br)c(Br)c(Br)c(Br)c3C2=O)cc1 | 2.39 |
| CC(C)(C)c1ccc2c(c1)C(=O)N(CCc1ccc(S(N)(=O)=O)cc1)C2=O | 0.459 |
| NS(=O)(=O)c1ccc(CN2C(=O)C3C(C2=O)C2(Cl)C(Cl)=C(Cl)C3(Cl)C2(Cl)Cl)cc1 (centres undefined) | 0.0169 |
| NS(=O)(=O)c1ccc(CCN2C(=O)C3C(C2=O)C2(Cl)C(Cl)=C(Cl)C3(Cl)C2(Cl)Cl)cc1 (centres undefined) | 0.114 |
| NS(=O)(=O)c1ccc(N2C(=O)C3C(C2=O)C2(Cl)C(Cl)=C(Cl)C3(Cl)C2(Cl)Cl)cc1 (centres undefined) | 0.0137 |
| NS(=O)(=O)c1ccc(CCN2C(=O)c3ccc([N+](=O)[O-])cc3C2=O)cc1 | 1.64 |
| NS(=O)(=O)c1ccc(CCN2C(=O)c3cccc([N+](=O)[O-])c3C2=O)cc1 | 2.67 |

Second part, the compound after the results:

| Ki [µM] | SMILES |
| --- | --- |
| 0.39 | Cc1ccc2c(c1)C(=O)N(CCc1ccc(S(N)(=O)=O)cc1)C2=O |
| 0.296 | NS(=O)(=O)c1ccc(CCN2C(=O)CCC2=O)cc1 |
| 0.296 | NS(=O)(=O)c1ccc(CCN2C(=O)[C@H]3CC=CC[C@H]3C2=O)cc1 |
| 0.274 | NS(=O)(=O)c1ccc(CCN2C(=O)C=CC2=O)cc1 |
| 0.428 | NS(=O)(=O)c1ccc(CCN2C(=O)c3cc(Cl)c(Cl)cc3C2=O)cc1 |
| 0.296 | NS(=O)(=O)c1ccc(CCN2C(=O)c3ccccc3C2=O)cc1 |
| 4.19 | NS(=O)(=O)c1ccc(CCN2C(=O)c3nccnc3C2=O)cc1 |
